Assays:
Cbl-b [1] = target: T1, Cbl-b (Homo sapiens, UniProt Q13191); test: Cbl-b inhibition assay (Cbl-b activity assay, FRET, Biological Example 1; 100 mM NaCl, 60 nM Src kinase); assay type: biochemical
Summary of the method: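 TR-FRET assay using N-terminal biotinylated Avi-tagged Cbl-b bound to streptavidin-terbium, Src kinase for Cbl-b phosphorylation, and UbcH5B irreversibly conjugated to Bodipy-Fluorescein-ubiquitin. Phosphorylated Cbl-b binds UbcH5B-Ub, bringing the fluorophores together; inhibition is read as loss of FRET signal.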

T-cell [2] = test: IL-2 secretion from T-cells co-stimulated with anti-CD3 and anti-CD28 antibody (Biological Example 2); assay type: cell-based, human; conditions: Homo sapiens, T-cell
Summary of the method: (§1)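 Values are fold-change over baseline: readings (IL-2 release, CD25 staining) from inhibitor-treated T-cells divided against untreated cells […]. No detailed procedure stated.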

T-cell [3] = test: IL-2 secretion from T-cells stimulated with anti-CD3 antibody alone (Biological Example 2); assay type: cell-based, human; conditions: Homo sapiens, T-cell
T-cell [4] = test: CD25 cell surface staining on T-cells co-stimulated with anti-CD3 and anti-CD28 antibody (Biological Example 2); assay type: cell-based, human; conditions: Homo sapiens, T-cell
Summary of the method: as §1

T-cell [5] = test: CD25 cell surface staining on T-cells stimulated with anti-CD3 antibody alone (Biological Example 2); assay type: cell-based, human; conditions: Homo sapiens, T-cell
Cbl-b [6] = target: T1, Cbl-b; test: Cbl-b activity assay (Cbl-b inhibition assay), TR-FRET of Cbl-b interaction with UbcH5B-Ub; assay type: biochemical; conditions: assay buffer with 100 mM NaCl, 60 nM Src kinase
Summary of the method: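 Compound-treated Cbl-b was incubated 1.5 h with Src kinase (60 nM final; 30 nM for asterisked values, which also used 50 mM instead of 100 mM NaCl), 1 mM ATP and 5 mM MgCl2. Binding to fluorescent Ub-loaded UbcH5B (C85K mutant) was then read by TR-FRET after 1 h more.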

[7] = upper bound stated in text lists, read-out: IC50 values in the Cbl-b inhibition assay of Biological Example 1
[8] = read-out: IL-2 secretion, Anti-CD3/Anti-CD28 stimulation, fold change over baseline
[9] = read-out: IL-2 secretion, Anti-CD3 stimulation, fold change over baseline
[10] = read-out: CD25 staining, Anti-CD3/Anti-CD28 stimulation, fold change over baseline
[11] = read-out: CD25 staining, Anti-CD3 stimulation, fold change over baseline
[12] = 0.3 μM Cbl-b inhibitor, fold change over baseline (anti-CD3/anti-CD28 stimulated T-cells without inhibitor), read-out: IL-2 secretion Anti-CD3/Anti-CD28 stimulation
[13] = 1 μM Cbl-b inhibitor, fold change over baseline (anti-CD3/anti-CD28 stimulated T-cells without inhibitor), read-out: IL-2 secretion Anti-CD3/Anti-CD28 stimulation
[14] = 1 μM Cbl-b inhibitor, fold change over baseline (anti-CD3/anti-CD28 stimulated T-cells without inhibitor), read-out: IL-2 secretion Anti-CD3 stimulation
[15] = 0.3 μM Cbl-b inhibitor, fold change over baseline (anti-CD3/anti-CD28 stimulated T-cells without inhibitor), read-out: CD25 staining Anti-CD3/Anti-CD28 stimulation
[16] = 1 μM Cbl-b inhibitor, fold change over baseline (anti-CD3/anti-CD28 stimulated T-cells without inhibitor), read-out: CD25 staining Anti-CD3/Anti-CD28 stimulation
[17] = 1 μM Cbl-b inhibitor, fold change over baseline (anti-CD3/anti-CD28 stimulated T-cells without inhibitor), read-out: CD25 staining Anti-CD3 stimulation

T1 sequence (Q13191 36-427): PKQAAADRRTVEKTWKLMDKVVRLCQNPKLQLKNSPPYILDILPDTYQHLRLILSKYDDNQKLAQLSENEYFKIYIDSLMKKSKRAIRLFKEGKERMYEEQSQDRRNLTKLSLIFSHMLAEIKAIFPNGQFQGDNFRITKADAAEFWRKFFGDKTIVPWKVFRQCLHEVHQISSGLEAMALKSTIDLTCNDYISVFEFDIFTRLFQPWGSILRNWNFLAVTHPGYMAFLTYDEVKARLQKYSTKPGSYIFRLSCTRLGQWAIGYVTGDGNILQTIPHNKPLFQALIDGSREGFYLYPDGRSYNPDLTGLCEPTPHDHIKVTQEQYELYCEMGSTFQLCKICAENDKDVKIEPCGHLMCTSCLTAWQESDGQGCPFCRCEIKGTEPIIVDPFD

SMILES	IC50 (Cbl-b [1]; [7]) [nM]	fold induction at 0.3 µM (T-cell [2]; [8])	fold induction at 1 µM (T-cell [2]; [8])	fold induction at 1 µM (T-cell [3]; [9])	fold induction at 0.3 µM (T-cell [4]; [10])	fold induction at 1 µM (T-cell [4]; [10])	fold induction at 1 µM (T-cell [5]; [11])	IC50 (Cbl-b [6]; read-out: Cbl-b activity IC50) [µM]	IC50 (Cbl-b [1]; IC50 values in the Cbl-b inhibition assay of Biological Example 1) [nM]	IC50 (Cbl-b [6]; Cbl-b activity IC50 (μM)) [µM]	fold induction at 0.3 µM (T-cell [2]; [12])	fold induction at 1 µM (T-cell [2]; [13])	fold induction at 1 µM (T-cell [3]; [14])	fold induction at 0.3 µM (T-cell [4]; [15])	fold induction at 1 µM (T-cell [4]; [16])	fold induction at 1 µM (T-cell [5]; [17])
CN1C2CCC1CN(c1cc3c(c(C(F)(F)F)c1)CN(c1cccc(C4(Cc5nncn5C)COC4)c1)C3=O)C2 [Compound 388, 2-(3-(3-((4-Methyl-4H-1,2,4-triazol-3-yl)methyl)oxetan-3-yl)phenyl)-6-(8-methyl-3,8-diazabicyclo[3.2.1]octan-3-yl)-4-(trifluoromethyl)isoindolin-1-one]	≤ 100	2.51 to 5	5 to 7.5	0.151 to 0.2	1.01 to 1.3	1.01 to 1.3	> 1	< 0.1	–	–	–	–	–	–	–	–
Cn1cnnc1CC1(c2cccc(NC(=O)c3nc(C(F)(F)F)cs3)c2)COC1 [Compound 495, N-(3-{3-[(4-methyl-1,2,4-triazol-3-yl)methyl]oxetan-3-yl}phenyl)-4-(trifluoromethyl)-1,3-thiazole-2-carboxamide]	–	1.01 to 2.5	2.51 to 5	< 0.05	1.01 to 1.3	1.01 to 1.3	0.601 to 0.8	–	≤ 1000	0.301 to 1	–	–	–	–	–	–
Cn1cnnc1CC1(c2cccc(N3Cc4c(cc(CN5C6CCC5CC6)cc4C(F)(F)F)C3=O)c2)COC1 [Example 555, 6-((7-azabicyclo[2.2.1]heptan-7-yl)methyl)-2-(3-(3-((4-methyl-4H-1,2,4-triazol-3-yl)methyl)oxetan-3-yl)phenyl)-4-(trifluoromethyl)isoindolin-1-one]	≤ 100	> 7.5	> 7.5	> 0.201	1.51 to 1.75	1.51 to 1.75	> 1	< 0.1	–	–	–	–	–	–	–	–
Cn1cnnc1CC1(c2cccc(N3Cc4c(cc(CN5C6CCCC5CC6)cc4C(F)(F)F)C3=O)c2)COC1 [Example 556, 6-((8-azabicyclo[3.2.1]octan-8-yl)methyl)-2-(3-(3-((4-methyl-4H-1,2,4-triazol-3-yl)methyl)oxetan-3-yl)phenyl)-4-(trifluoromethyl)isoindolin-1-one]	≤ 100	> 7.5	> 7.5	> 0.201	> 1.76	> 1.76	> 1	< 0.1	–	–	–	–	–	–	–	–
Cn1cnnc1CC1(c2cccc(N3Cc4c(cc(CN5[C@@H]6CC[C@H]5C[C@@H](F)C6)cc4C(F)(F)F)C3=O)c2)COC1 [Example 557, 6-(((1R,3r,5S)-3-fluoro-8-azabicyclo[3.2.1]octan-8-yl)methyl)-2-(3-(3-((4-methyl-4H-1,2,4-triazol-3-yl)methyl)oxetan-3-yl)phenyl)-4-(trifluoromethyl)isoindolin-1-one]	≤ 100	5 to 7.5	> 7.5	> 0.201	> 1.76	> 1.76	> 1	< 0.1	–	–	–	–	–	–	–	–
Cn1cnnc1CC1(c2cccc(N3Cc4c(cc(C5=CN6CCC5CC6)cc4C(F)(F)F)C3=O)c2)COC1 [Example 559, 6-(l-azabicyclo[2.2.2]oct-2-en-3-yl)-2-(3-(3-((4-methyl-4H-1,2,4-triazol-3-yl)methyl)oxetan-3-yl)phenyl)-4-(trifluoromethyl)isoindolin-1-one]	≤ 300	–	–	–	–	–	–	0.1 to 0.3	–	–	1.01 to 2.5	2.51 to 5	< 0.05	1.01 to 1.3	1.01 to 1.3	0.601 to 0.8
Cn1cnnc1CC1(c2cccc(N3Cc4c(cc(C5CN6CCC5CC6)cc4C(F)(F)F)C3=O)c2)COC1 (stereo not shown) [Example 560, 2-(3-(3-((4-methyl-4H-1,2,4-triazol-3-yl)methyl)oxetan-3-yl)phenyl)-6-(quinuclidin-3-yl)-4-(trifluoromethyl)isoindolin-1-one]	≤ 100	–	–	–	–	–	–	< 0.1	–	–	2.51 to 5	5 to 7.5	< 0.05	1.01 to 1.3	1.01 to 1.3	0.601 to 0.8
Cn1cnnc1CC1(c2cccc(N3Cc4c(cc(N5CCOC5=O)cc4C(F)(F)F)C3=O)c2)COC1 [Example 561, 3-(2-(3-(3-((4-Methyl-4H-1,2,4-triazol-3-yl)methyl)oxetan-3-yl)phenyl)-3-oxo-7-(trifluoromethyl)isoindolin-5-yl)oxazolidin-2-one]	≤ 100	–	–	–	–	–	–	< 0.1	–	–	1.01 to 2.5	2.51 to 5	< 0.05	1.01 to 1.3	1.01 to 1.3	0.601 to 0.8
CN1C[C@H]2C[C@@H]1CN2c1cc2c(c(C(F)(F)F)c1)CN(c1cccc([C@@](C)(F)C(F)(F)c3nncn3C)c1)C2=O [Example 562, 6-((1R,4R)-5-Methyl-2,5-diazabicyclo[2.2.1]heptan-2-yl)-2-(3-((R)-1,1,2-trifluoro-1-(4-methyl-4H-1,2,4-triazol-3-yl)propan-2-yl)phenyl)-4-(trifluoromethyl)-isoindolin-1-one]	≤ 100	–	–	–	–	–	–	< 0.1	–	–	5 to 7.5	> 7.5	> 0.201	1.51 to 1.75	1.51 to 1.75	> 1
CN1C[C@@H]2C[C@H]1CN2c1cc2c(c(C(F)(F)F)c1)CN(c1cccc([C@@](C)(F)C(F)(F)c3nncn3C)c1)C2=O [Example 563, 6-((1S,4S)-5-Methyl-2,5-diazabicyclo[2.2.1]heptan-2-yl)-2-(3-((R)-1,1,2-trifluoro-1-(4-methyl-4H-1,2,4-triazol-3-yl)propan-2-yl)phenyl)-4-(trifluoromethyl)-isoindolin-1-one]	≤ 100	–	–	–	–	–	–	< 0.1	–	–	1.01 to 2.5	2.51 to 5	0.051 to 0.1	1.01 to 1.3	1.31 to 1.5	0.801 to 1
CN1C2CCC1CN(c1cc3c(c(C(F)(F)F)c1)CN(c1cccc([C@@](C)(F)C(F)(F)c4nncn4C)c1)C3=O)C2 [Example 564, 6-(8-Methyl-3,8-diazabicyclo[3.2.1]octan-3-yl)-2-(3-((R)-1,1,2-trifluoro-1-(4-methyl-4H-1,2,4-triazol-3-yl)propan-2-yl)phenyl)-4-(trifluoromethyl)isoindolin-1-one]	≤ 100	–	–	–	–	–	–	< 0.1	–	–	1.01 to 2.5	2.51 to 5	0.101 to 0.15	1.01 to 1.3	1.31 to 1.5	0.801 to 1

Reference: patent US20220324835A1 (Nurix Therapeutics, Inc., priority 2018, published 2022)
